Values quoted from earlier work, collected in publication PMC9240354, “Pharmacokinetics, Pharmacodynamics and Antiviral Efficacy of the MEK Inhibitor Zapnometinib in Animal Models and in Humans” (Frontiers in Pharmacology, 2022).

Assays:
MEK = tested on: MEK; design: method as in Yang et al., 2010; conditions: single application, LOX melanoma tumor xenograft model; ref Yang et al., 2010; cited from earlier work
ERK phosphorylation = tested on: ERK phosphorylation; design: method as in Gilmartin et al., 2011; conditions: mouse tumor xenograft model; ref Gilmartin et al., 2011; cited from earlier work

SMILES | MEK inhibition with decreasing plasma concentration (MEK) | inhibition of ERK phosphorylation in vivo (ERK phosphorylation)
CCCS(=O)(=O)Nc1ccc(F)c(C(=O)c2c[nH]c3ncc(-c4ccc(Cl)cc4)cc23)c1F [RG7204] | remained at a relatively constant value up to 8 h post dose | –
CC(=O)Nc1cccc(-n2c(=O)n(C3CC3)c(=O)c3c(Nc4ccc(I)cc4F)n(C)c(=O)c(C)c32)c1 [trametinib] | – | sustained inhibition of ERK phosphorylation
